From BindingDB's records for doi:10.1016/s0960-894x(99)00632-0 (3-Dimensional Pharmaceuticals, 2000) come the findings set out here.

The assay can be described thus: Compound was evaluated for the inhibitory constant against human Serine protease chymotrypsin.

pKi: −log10 of the molar value.

In turn, `Cc1cc(OCCC=NNC(=N)N)cc(OS(=O)(=O)c2ccccc2OC(F)(F)F)c1` [3-[((3E)-3-{[(E)-amino(imino)methyl]hydrazono}propyl)oxy]-5-methylphenyl 2-(trifluoromethoxy)benzenesulfonate] had a pKi of 4.06.

Broadly, the pKi is −log10 of the Ki, conventionally taken in molar units. A lower pKi goes with a high Ki.
